According to patent publication US20040110802A1, “Antibacterial benzoic acid derivatives” (priority 2002, published 2004):
Values after ≈ are worked out from the molar mass of the structure shown.

The compounds below were run on SAUR 9218 (assay: MIC Test Method, standard agar dilution). Conditions: agar dilution, Mueller Hinton agar, incubated overnight at 35° C.; lowest concentration that inhibits visible growth; read-out: SAUR 9218 MIC.
Type: cell-based
Description: The in vitro MiCs of test compounds were determined by a standard agar dilution method. A stock drug solution of each analog was prepared in the preferred solvent, usually DMSO:H2O (1:3). Serial 2-fold dilutions of each sample are made using 1.0 ml aliquots of sterile distil]ed water. To each 1.0 ml aliquot of drug was added 9 ml of molten Mueller Hinton agar medium. The drug-supplemented agar was mixed, poured into 15×100 mm petri dishes, and allowed to solidify and dry prior to inoculation.
Vials of each of the test organisms are maintained frozen in the vapor phase of a liquid nitrogen freezer. Test cultures are grown overnight at 35° C. on the medium appropriate for the organism. Colonies are harvested with a sterile swab, and cell suspensions are prepared in Trypticase Soy broth (TSB) to equal the turbidity of a 0.5 McFamland standard. A 1:20 dilution of each suspension was made in TSB. The plates containing the drug supplemented agar are inoculated with a 0.001 ml drop of the cell suspension using a Steers replicator, yielding approximately 10^4 to 10^5 cells per spot. The plates are incubated overnight at 35° C.
Following incubation the Minimum Inhibitory Concentration (MIC μg/ml), the lowest concentration of drug that inhibits visible growth of the organism, was read and recorded.

MIC	SMILES
0.25 µg/mL (≈ 0.559 µM)	Cn1c(C(=O)Nc2ccc(C#N)cc2C(=O)O)cc2cccc(O/C=C3/COC(C)(C)O3)c21
0.125 µg/mL (≈ 0.272 µM)	Cn1c(C(=O)Nc2ccc(C#N)cc2C(=O)O)cc2cccc(S(=O)(=O)c3ccccc3)c21
1 µg/mL (≈ 2.17 µM)	Cn1c(C(=O)Nc2ccc(C#N)cc2C(=O)O)cc2cccc(NC(=O)NCC3CCCO3)c21 (stereo not shown)
0.5 µg/mL	CCCSc1ccc(C(=O)Nc2ccc(C#N)cc2C(=O)O)cn1.Cl
0.5 µg/mL (≈ 1.25 µM)	CS(=O)(=O)Nc1ccc2onc(C(=O)Nc3ccc(C#N)cc3C(=O)O)c2c1
1 µg/mL (≈ 2.75 µM)	COc1ccc(-c2cnc(C(=O)Nc3ccc(C#N)cc3C(=O)O)o2)cc1
2 µg/mL (≈ 4.64 µM)	O=C(Nc1ccc(Br)cc1C(=O)O)c1ncc(-c2ccc3c(c2)OCO3)o1
2 µg/mL (≈ 4.47 µM)	N#Cc1ccc(NC(=O)c2cc(-c3ccccc3OCC3CCCCO3)on2)c(C(=O)O)c1 (stereo not shown)
0.125 µg/mL (≈ 0.351 µM)	CCCCSc1cnc(C(=O)Nc2ccc(C#N)cc2C(=O)O)cn1
0.125 µg/mL (≈ 0.337 µM)	CC(C)CCSc1cnc(C(=O)Nc2ccc(C#N)cc2C(=O)O)cn1
16 µg/mL (≈ 46.6 µM)	N#Cc1ccc(NC(=O)c2cncc(-c3ccccc3)c2)c(C(=O)O)c1
128 µg/mL (≈ 381 µM)	Cc1cnc(C(=O)Nc2ccc(Br)cc2C(=O)O)cn1
128 µg/mL (≈ 264 µM)	COCOCC(O)C(Cc1cnc(C(=O)Nc2ccc(Br)cc2C(=O)O)cn1)OC (stereo not shown)
0.5 µg/mL (≈ 1.03 µM)	C[C@@H](CBr)COc1ccccc1-c1cc(C(=O)Nc2ccc(C#N)cc2C(=O)O)no1
64 µg/mL (≈ 125 µM)	Cc1sc(C(=O)Nc2ccc(C#N)cc2C(=O)O)cc1S(=O)(=O)N(C)CCC(O)c1ccccc1 (stereo not shown)
> 128 µg/mL	COc1ccc(C(=O)Nc2ccc(Br)cc2C(=O)O)c(OC)n1
0.06 µg/mL (≈ 0.136 µM)	N#Cc1ccc(NC(=O)c2noc3ccc(S(=O)(=O)N4CCCC4)cc23)c(C(=O)O)c1
2 µg/mL (≈ 4.03 µM)	CCCCOc1ccc(C(=O)Nc2cccc3cc(C(=O)Nc4ccc(C#N)cc4C(=O)O)[nH]c23)cc1
32 µg/mL (≈ 88.5 µM)	CCCCn1c(C(=O)Nc2ccc(C#N)cc2C(=O)O)cc2ccccc21
1 µg/mL (≈ 2.3 µM)	O=C(Nc1ccc(I)cc1C(=O)O)c1cc(-c2ccccc2)on1
4 µg/mL (≈ 11.9 µM)	COc1cccc2cc(C(=O)Nc3ccc(C#N)cc3C(=O)O)oc12
16 µg/mL (≈ 38.9 µM)	N#Cc1ccc(NC(=O)c2cc3cc(OCc4ccccc4)ccc3[nH]2)c(C(=O)O)c1
32 µg/mL (≈ 68.7 µM)	CCCCN(CCO)S(=O)(=O)c1cc(C(=O)Nc2ccc(C#N)cc2C(=O)O)sc1C
4 µg/mL (≈ 7.55 µM)	Cc1sc(C(=O)Nc2ccc(Br)cc2C(=O)O)cc1S(=O)(=O)Nc1ccc(Cl)cc1

MIC	SMILES
1 µg/mL (≈ 2.17 µM)	N#Cc1ccc(NC(=O)c2cc3cccc(NC(=O)c4ccc(F)cc4F)c3[nH]2)c(C(=O)O)c1
> 128 µg/mL	COC(Cc1cnc(C(=O)Nc2ccc(Br)cc2C(=O)O)cn1)[C@H](O)CO (stereo partly shown)
32 µg/mL (≈ 71.4 µM)	CC1(C)OCC(/C=C/c2cnc(C(=O)Nc3ccc(Br)cc3C(=O)O)cn2)O1 (stereo not shown)
2 µg/mL (≈ 4.95 µM)	CC(C)CC(=O)Nc1cccc2cc(C(=O)Nc3ccc(C#N)cc3C(=O)O)[nH]c12
4 µg/mL (≈ 9.97 µM)	CC(C)n1c(C(=O)Nc2ccc(Br)cc2C(=O)O)cc2ccccc21
64 µg/mL (≈ 143 µM)	O=C(O)c1cc(Br)ccc1NC(=O)c1cc(-c2ccccc2)nc2ccccc12
4 µg/mL (≈ 8.33 µM)	COCCOCCOCC(=O)Nc1cccc2cc(C(=O)Nc3ccc(C#N)cc3C(=O)O)[nH]c12
0.125 µg/mL (≈ 0.324 µM)	N#Cc1ccc(NC(=O)c2noc3ccc(Br)cc23)c(C(=O)O)c1
8 µg/mL (≈ 20.9 µM)	N#Cc1ccc(NC(=O)c2cc3cc(-c4ccccc4)oc3cn2)c(C(=O)O)c1
0.125 µg/mL (≈ 0.263 µM)	Cn1c(C(=O)Nc2ccc(C#N)cc2C(=O)O)cc2cccc(NS(=O)(=O)CCCCl)c21
0.03 µg/mL (≈ 0.0574 µM)	N#Cc1ccc(NC(=O)c2noc3ccc(S(=O)(=O)N4CCc5cc(Cl)ccc54)cc23)c(C(=O)O)c1
0.125 µg/mL (≈ 0.311 µM)	N#Cc1ccc(NC(=O)c2noc3ccc(-c4ccccc4F)cc23)c(C(=O)O)c1
4 µg/mL (≈ 11.4 µM)	COc1cnc(C(=O)Nc2ccc(Br)cc2C(=O)O)cn1
0.015 µg/mL (≈ 0.0405 µM)	CCCCCSc1ccc(C(=O)Nc2ccc(C#N)cc2C(=O)O)nn1
0.25 µg/mL (≈ 0.783 µM)	Cn1c(C(=O)Nc2ccc(C#N)cc2C(=O)O)cc2ccccc21
1 µg/mL (≈ 2.75 µM)	COc1ccccc1-c1cnc(C(=O)Nc2ccc(C#N)cc2C(=O)O)o1
1 µg/mL (≈ 2.2 µM)	O=C(Nc1ccc(Br)cc1C(=O)O)c1ncc(-c2ccccc2C(F)(F)F)o1
2 µg/mL (≈ 5.3 µM)	N#Cc1ccc(NC(=O)c2ncc(-c3ccc4c(c3)OCO4)o2)c(C(=O)O)c1
0.5 µg/mL (≈ 1.1 µM)	N#Cc1ccc(NC(=O)c2noc3ccc(S(=O)(=O)N4CCOCC4)cc23)c(C(=O)O)c1
0.5 µg/mL (≈ 1.07 µM)	CCC(C(=O)Nc1cccc2cc(C(=O)Nc3ccc(C#N)cc3C(=O)O)[nH]c12)c1ccccc1 (stereo not shown)
1 µg/mL (≈ 2.98 µM)	Cn1c(C(=O)Nc2ccc(C#N)cc2C(=O)O)cc2cccc(O)c21
32 µg/mL (≈ 89.3 µM)	Cc1ccccc1-c1cnc(C(=O)Nc2ccc(C#N)cc2C(=O)O)cn1
0.5 µg/mL (≈ 1.38 µM)	COc1cccc(-c2cnc(C(=O)Nc3ccc(C#N)cc3C(=O)O)o2)c1
8 µg/mL (≈ 21.5 µM)	CC1=C(C(=O)Nc2ccc(Br)cc2C(=O)O)Cc2ccccc21

MIC	SMILES
2 µg/mL (≈ 4.51 µM)	N#Cc1ccc(NC(=O)c2cc(-c3ccccc3OCC3C=CCCC3)on2)c(C(=O)O)c1 (stereo not shown)
8 µg/mL (≈ 16.4 µM)	O=C(Nc1ccc(Br)cc1C(=O)O)c1cnc(/C=C/C2COC3(CCCCC3)O2)cn1 (stereo not shown)
> 128 µg/mL	COc1ccc(-c2cnc(C(=O)Nc3ccc(C#N)cc3C(=O)O)cn2)c(OC)c1OC
0.25 µg/mL (≈ 0.639 µM)	N#Cc1ccc(NC(=O)c2ccc(SCc3ccncc3)nn2)c(C(=O)O)c1
4 µg/mL (≈ 8.78 µM)	O=C(O)c1cc(Br)ccc1NC(=O)c1cc2ccccc2n1CC1CCCCC1
0.125 µg/mL (≈ 0.301 µM)	Cn1c(C(=O)Nc2ccc(C#N)cc2C(=O)O)cc2cccc(OCc3ccco3)c21
128 µg/mL (≈ 317 µM)	O=C(Nc1ccc(I)cc1C(=O)O)c1cnc(Cl)cn1
0.125 µg/mL (≈ 0.25 µM)	O=C(Nc1ccc(Br)cc1C(=O)O)c1cc2cccc(S(=O)(=O)c3ccccc3)c2[nH]1
0.03 µg/mL (≈ 0.0705 µM)	N#Cc1ccc(NC(=O)c2cc(-c3ccccc3Oc3ccccc3)on2)c(C(=O)O)c1
1 µg/mL (≈ 2.49 µM)	N#Cc1ccc(NC(=O)c2ncc(-c3ccccc3C(F)(F)F)o2)c(C(=O)O)c1
8 µg/mL (≈ 17.3 µM)	N#Cc1ccc(NC(=O)c2cccc3c2CCN(Cc2ccccc2)S3(=O)=O)c(C(=O)O)c1
2 µg/mL (≈ 4.66 µM)	CCCCCn1c(C(=O)Nc2ccc(Br)cc2C(=O)O)cc2ccccc21
4 µg/mL	CSc1ccc(C(=O)Nc2ccc(C#N)cc2C(=O)O)cn1.Cl
1 µg/mL (≈ 2.16 µM)	N#Cc1ccc(NC(=O)c2noc3cc(NS(=O)(=O)c4ccccc4)ccc23)c(C(=O)O)c1
64 µg/mL (≈ 199 µM)	N#Cc1ccc(NC(=O)c2cncc(C#CCO)c2)c(C(=O)O)c1
> 128 µg/mL	CSc1ncc(Cl)c(C(=O)Nc2ccc(Br)cc2C(=O)O)n1
> 128 µg/mL	O=C(Nc1ccc(Br)cc1C(=O)O)c1ccccn1
4 µg/mL (≈ 11 µM)	N#Cc1ccc(NC(=O)c2cnc(-c3ccccc3F)cn2)c(C(=O)O)c1
0.5 µg/mL (≈ 1.15 µM)	CCOC(=O)CC(=O)Nc1cccc2cc(C(=O)Nc3ccc(C#N)cc3C(=O)O)[nH]c12
0.125 µg/mL (≈ 0.29 µM)	C[C@@H]1CCCC1Oc1ccccc1-c1cc(C(=O)Nc2ccc(C#N)cc2C(=O)O)no1 (stereo partly shown)
1 µg/mL (≈ 1.84 µM)	N#Cc1ccc(NC(=O)c2cc3cccc(NS(=O)(=O)c4ccc(OC(F)(F)F)cc4)c3[nH]2)c(C(=O)O)c1
1 µg/mL (≈ 2.1 µM)	N#Cc1ccc(NC(=O)c2noc3cc(NS(=O)(=O)Cc4ccccc4)ccc23)c(C(=O)O)c1
0.125 µg/mL (≈ 0.264 µM)	N#Cc1ccc(NC(=O)c2cc3cccc(NC(=O)C(Cl)c4ccccc4)c3[nH]2)c(C(=O)O)c1 (stereo not shown)
2 µg/mL (≈ 4.14 µM)	N#Cc1ccc(NC(=O)c2ccc(S(=O)(=O)N3CCc4cc(Cl)ccc43)nc2)c(C(=O)O)c1

SMILES	MIC
N#Cc1ccc(NC(=O)c2noc3cc(-c4ccc([N+](=O)[O-])cc4C(F)(F)F)c([N+](=O)[O-])cc23)c(C(=O)O)c1	0.03 µg/mL (≈ 0.0554 µM)
